The subject of series [1] is A2780 ovarian cancer cells. Description: MTT cytotoxicity assay, A2780. The format is cell-based, human. To be noted: read-out: IC50 A2780 (Ovarian). As to the method:
(§1) The synthesized derivatives were screened for their cytotoxic activities against five cancer cell lines (two breast cancer cell lines: MCF-7 and MDA-MB-231, two ovarian cancer cell lines: A2780 and KF-28, and one cervical cancer cell line: Hela). This study was performed using serial concentrations of 25, 50, 100, 150, and 200 µM of each compound using the MTT assay. Percentages of cell viability of the tested compounds with serial concentration against the tested panel of cell lines are depicted in Figure 1, in which there is a decrease in the cell viability with increasing concentrations in a dose–response pattern. […] Therefore, compounds 5a, 5b, and 5f were thought worthwhile to further investigate their effects as either cytotoxic or antiproliferative effects and whether any of them is an inducer of apoptotic cell death in the representative cancer cell lines KF-28 and A2780.
(§2) The human ovarian serous carcinoma cell line KF-28 was kindly provided by Prof. Yoshihiro Kikuchi (Department of Obstetrics and Gynecology, National Defense Medical College, Saitama, Japan), and A2780 cell line was purchased from the ECACC (ECACC 93112519). The cells were maintained in RPMI-1640 (Sigma-Aldrich, United States). The cervical cancer cell line, Hela cells, breast cancer cell line, MCF-7, and MDA-MB-231 were purchased from the ATCC and cultured in DMEM. Both types of media were supplemented with 2 mM L-glutamine (Lonza, Belgium), 10% FBS (Sigma, St. Louis, MO, United States), and 1% penicillin/streptomycin (Lonza, Belgium). All cells were incubated at 37°C in 5% CO2 atmosphere (NuAire). All cancer cell lines were cultured according to the routine tissue culture work as discussed by the Freshney group ([Freshney, 2010]). The cells were plated at a density of 5,000 cells in triplicates in a 96-well plate. On the next day, the cells were treated with the indicated compound(s) at the indicated concentrations in a final volume of 100 μL media. Cell viability was assessed after 72 h using MTT solution (Promega) ([Mosmann, 1983]). 20 μL of the reagent was added to each well, the plate was incubated for 3 h, […] was subsequently measured (570 nm) using a plate reader, and then the IC50 values were calculated using Excel ([Tantawy et al., 2020]).
Background: Formazan colour is commonly taken as a measure of viable cells.

Series [2] has as its system MDA-MB-231 breast cancer cells. Briefly: MTT cytotoxicity assay, MDA-MB-231. Particulars: Homo sapiens, read-out: IC50 MDA-MB-231 (Breast). The format is cell-based. As to the method: as §1, §2
The subject of series [3] is KF-28 ovarian cancer cells. Briefly: MTT cytotoxicity assay, KF-28. The format is cell-based, human. To be noted: 72 h, read-out: IC50 KF-28 (Ovarian). As to the method:
as §1, §2

The subject of series [4] is Hela cervical cancer cells. Description: MTT cytotoxicity assay, Hela. The format is cell-based. To be noted: Homo sapiens, 72 h. As to the method: as §1, §2
For series [5], the system named is MCF-7 breast cancer cells. Description: MTT cytotoxicity assay, MCF-7. The format is cell-based, human. Particulars: read-out: IC50 MCF-7 (Breast). As to the method: as §1, §2
Series [6] concerns KF-28 cells. Description: Annexin V-FITC/PI apoptosis assessment. The format is cell-based, human. To be noted: 48 h, cisplatin 10 μM, DMSO control 0.45%. On the procedure:
Therefore, we decided to use such technique to investigate if the cytotoxic effect of the compounds indicated by MTT and the cell cycle experiments is apoptotic cell death or not. For that purpose, two cell lines, KF-28 and A2780, were stained by annexin V/PI after treatment with different compounds vs. DMSO for two days in parallel with cisplatin as a reference drug. Results from annexin staining analysis show appreciated annexin V–stained populations when cells are treated with compounds 5a–c, 5f, and 9. […] Similar results were obtained from the other cell line, A2780, treated with the same compounds (Figure 2B).
(§3) The cells were seeded into six-well culture plates (3–5 × 10^5 cells/well) and incubated overnight at 37°C, under 5% CO2. The cells were then treated with indicated compounds for 48 h. Next, media supernatants and the cells were collected and washed with ice-cold PBS. Next, the cells were stained with PI (10 mg/ml) for 30 min and analyzed for DNA contents using flow cytometry analysis using an FL2 (λex/em 535/617 nm) signal detector (ACEA Novocyte™ flow cytometer, ACEA Biosciences, Inc., San Diego, CA, United States). For each sample, 12,000 events are acquired. Cell cycle distribution is calculated using a CytoFLex machine and analyzed by CytExpert software. Flow cytometric methodologies (annexin V/PI staining with cell cycle analyses) are carried out as previously described ([Nafie et al., 2020a]; [Nafie et al., 2020b]; [Gad et al., 2020]).

In series [7] the test system is MEF normal mouse embryonic fibroblast. Description: MTT cytotoxicity assay, MEF. Type of series: cell-based. To be noted: n = 3.
Series [8] concerns KF-28 cells. Description: DNA content and cell cycle analysis (PI, flow cytometry). Type of series: cell-based, human. Particulars: 200 µM, 48 h. As to the method:
Studying the cell cycle phases by measuring DNA content is a crucial test that helps in evaluating the impact of a given drug(s) on dividing cells and may reflect the mechanism through which this drug(s) affects those cells. […] Compounds 5a, 5b, 5c, 5f, 5g, and 9 were added to similar numbers of cells at 200 µM for 48 h, and then, the different cell cycle phases were assessed by flow cytometric analysis.
as §3

[9] abbreviates: Homo sapiens, A2780, MTT, 72 h, n = 3.
Setting [10] is: MTT, n = 3, read-out: IC50 Hela (Cervical).
[11] abbreviates: Homo sapiens, MCF7, MTT, 72 h, n = 3.

Where two headings read alike, the source gives them in different places. Some results are limits rather than exact numbers.

The results in this text go back to publication PMC8397418, “Novel Bis-Thiazole Derivatives: Synthesis and Potential Cytotoxic Activity Through Apoptosis With Molecular Docking Approaches” (Frontiers in Chemistry, 2021).

Regarding `Cc1[nH]c(=NN=C2CCC(=NN=c3[nH]c(C)c(N=Nc4ccc([N+](=O)[O-])cc4)s3)CC2)sc1N=Nc1ccc([N+](=O)[O-])cc1` [5d, 1,4-Bis((5-(4-nitrophenylazo)-4-methylthiazol-2-ylidene)hydrazono)cyclohexane], the melting point – broadly, the temperature, or range, at which the solid turns liquid – is more than 300 °C. Also, the IC50 (usually the concentration at which inhibition is half-maximal) in [1] (Homo sapiens, A2780, 72 h) is more than 200 µM. The IC50 in series [2] (MDA-MB-231, 72 h) is more than 200 µM. Further, the IC50 in [3] (Homo sapiens) was more than 200 µM. The IC50 in series [4] (read-out: IC50 Hela (Cervical)) was more than 200 µM. The IC50 in series [5] (Homo sapiens, MCF7, 72 h) was more than 200 µM.

For the molecule `Cc1ccccc1N=Nc1sc(=NN=C2CCC(=NN=c3[nH]c(C)c(N=Nc4ccccc4C)s3)CC2)[nH]c1C` [5e, 1,4-Bis((5-(2-tolylazo)-4-methylthiazol-2-ylidene)hydrazono)cyclohexane], the half-maximal inhibitory concentration (IC50) in series [1] (setting [9]) is 70.6 µM; in series [2] (MDA-MB-231, MTT, 72 h, n = 3) it was more than 200 µM; in series [3] (Homo sapiens, MTT, n = 3), more than 200 µM; in [4] (setting [10]), more than 200 µM; in [5] (setting [11]), less than 25 µM.

As to `c1ccc2sc(-c3csc(=NN=C4CCC(=NN=c5[nH]c(-c6nc7ccccc7s6)cs5)CC4)[nH]3)nc2c1` [13a, 1,4-Bis((4-(2-benzothiazolyl)thiazol-2-ylidene)hydrazono)cyclohexane], the melting point is more than 300 °C. Also, the half-inhibitory concentration (IC50) in series [1] (setting [9]) stood at 27.2 µM. In series [2] (MDA-MB-231, MTT, 72 h, n = 3), the IC50 was more than 200 µM. For the same molecule, in series [3] (Homo sapiens, MTT, n = 3), the IC50 is more than 200 µM. The IC50 in [4] (setting [10]) was more than 200 µM. In [5] (setting [11]), the IC50 is more than 200 µM.

`c1ccc2oc(-c3csc(=NN=C4CCC(=NN=c5[nH]c(-c6cc7ccccc7o6)cs5)CC4)[nH]3)cc2c1` [13b, 1,4-Bis((4-(2-benzofuryl)thiazol-2-ylidene)hydrazono)cyclohexane] registered a melting point of 269 to 270 °C.

In turn, `O=c1oc2ccccc2cc1-c1csc(=NN=C2CCC(=NN=c3[nH]c(-c4cc5ccccc5oc4=O)cs3)CC2)[nH]1` [13c, 1,4-Bis((4-(3-coumarinyl)thiazol-2-ylidene)hydrazono)cyclohexane] came in with a melting point of 241 to 242 °C. Moreover, in [1] (setting [9]), the IC50 was found to be 33.5 µM. Besides, the IC50 in [3] (Homo sapiens, MTT, n = 3) is 85.7 µM. The half-maximal inhibitory concentration (IC50) in [4] (setting [10]) is more than 200 µM. The IC50 in [5] (setting [11]) was 178 µM.

As to `Clc1ccc(-c2csc(=NN=C3CCC(=NN=c4[nH]c(-c5ccc(Cl)cc5)cs4)CC3)[nH]2)cc1` [13d, 1,4-Bis((4-(4-chlorophenyl)thiazol-2-ylidene)hydrazono)cyclohexane], the melting point was 230 to 231 °C. The IC50 in [4] (setting [10]) was more than 200 µM. Besides, in [5] (setting [11]), the IC50 is more than 200 µM.

Take `O=C1NC(=NN=C2CCC(=NN=C3NC(=O)C(=Cc4ccccc4)S3)CC2)SC1=Cc1ccccc1` [14a, 1,4-Bis((5-benzylidene-4-oxo-thiazolidin-2-ylidene)hydrazono)cyclohexane]: the melting point was more than 300 °C.

As to `Cc1ccc(C=C2SC(=NN=C3CCC(=NN=C4NC(=O)C(=Cc5ccc(C)cc5)S4)CC3)NC2=O)cc1` [14b, 1,4-Bis((5-(4-methylbenzylidene)-4-oxo-thiazolidin-2-ylidene)hydrazono)cyclohexane], the melting point lay in the range of 269 to 270 °C.

In turn, `O=C1NC(=NN=C2CCC(=NN=C3NC(=O)C(=Cc4ccc(Cl)cc4)S3)CC2)SC1=Cc1ccc(Cl)cc1` [14c, 1,4-Bis((5-(4-chlorobenzylidene)-4-oxo-thiazolidin-2-ylidene)hydrazono)cyclohexane] displayed a melting point of more than 300 °C.

With `O=C1NC(=NN=C2CCC(=NN=C3NC(=O)C(=Cc4ccc(Br)cc4)S3)CC2)SC1=Cc1ccc(Br)cc1` [14d, 1,4-Bis((5-(4-bromobenzylidene)-4-oxo-thiazolidin-2-ylidene)hydrazono)cyclohexane], the melting point was in the range of 290 to 291 °C.

Turning to `N.N.[Cl][Pt][Cl]` [Cisplatin, cisplatin, reference compound], the 50% inhibitory concentration (IC50) in series [1] (MTT, 72 h, n = 3) was determined as 1.56 µM; in [3] (MTT, n = 3), 9.29 µM; in series [5] (MTT, 72 h, n = 3), 1.21 µM. Moreover, the “Total apoptotic cell death (annexin V-positive cells)” value in the series on KF-28 cells [6] is 25%.

Take `O=C1CSC(=NN=C2CCC(=NN=C3NC(=O)CS3)CC2)N1` [compound 9, 1,4-Bis((4-oxo-thiazolidin-2-ylidene)hydrazono)cyclohexane]: the concentration for half-maximal inhibition (IC50) in series [7] is 1060 nM; in series [1] (setting [9]), 103 µM; in series [2] (MDA-MB-231, MTT, 72 h, n = 3), more than 200 µM; in series [3] (Homo sapiens, MTT, n = 3), 86.5 µM; in series [4] (setting [10]), 111 µM; in [5] (setting [11]), more than 200 µM. Also, the “Cell cycle phase S population” value with KF-28 cells [8] amounted to 6.5%. In the series on KF-28 cells [8] (DMSO control 72%), the “Cell cycle phase G1 population” value is 78%. Also, in the series with KF-28 cells [6], the “Total apoptotic cell death (annexin V-positive cells)” value is “did not induce appreciated apoptosis”.

Consider `CC(=O)c1sc(=NN=C2CCC(=NN=c3[nH]c(C)c(C(C)=O)s3)CC2)[nH]c1C` [compound 11, 1,4-Bis((5-acetyl-4-methylthiazol-2-ylidene)hydrazono)cyclohexane], for which the melting point is 280 to 281 °C.
